Experimental data published in patent US20210236512A1 (ZARODEX THERAPEUTICS LIMITED, priority 2018, published 2021).
Values joined by “and” are separate entries in the source; they are usually repeats but may differ in a detail not shown here. Identical values can stand only once.

Key:
[1] = tested on: Immunoglobulin levels (IgG, IgA and IgM); assay: First observational study: serum immunoglobulin levels by nephelometry, clozapine-treated vs clozapine-naive patients; type: in vivo, human
[2] = tested on: Specific antibody titres against Haemophilus influenzae, Tetanus and Pneumococcal capsular polysaccharide; design: species or system human; details: in vivo
[3] = tested on: T follicular helper cells and T regulatory cells; assay: Mouse CIA model: T follicular helper and T regulatory cells in spleen and lymph node by flow cytometry; type: in vivo, DBA/1 mice
[4] = tested on: circulating total IgG, IgA and IgM; assay: Second observational study (interim analysis): circulating immunoglobulins and pneumococcal-specific IgG; type: in vivo, human
[5] = tested on: collagen-induced arthritis (CIA); assay: Mouse collagen-induced arthritis (CIA) model: onset, clinical score and paw-swelling; type: in vivo, DBA/1 mice
Text: Adult (age 13-15 weeks) DBA/1 male mice were purchased from Envigo (Horst, Netherlands). […] 1. […] All experiments were approved by the Clinical Medicine Animal Welfare and Ethical Review Body (AWERB) and by the UK Home Office. DBA/1 mice were immunised with bovine type II collagen in CFA and monitored daily for onset of arthritis. […] Controls received vehicle (saline) alone. Treatment of mice commenced in one experiment on day 1 after immunisation and in a second experiment on day 15 after immunisation. Clinical scores and paw-swelling were monitored for 10 days following onset of arthritis. A clinical scoring system was used as follows. Arthritis severity was scored by an experienced, non-blinded investigator as follows: 0=normal, 1=slight swelling and/or erythema, 2=pronounced swelling, 3=ankylosis. […] Data were analyzed by one-way ANOVA with Tukey's or Dunnett's multiple comparison test or two-way ANOVA with Tukey's multiple comparison test as appropriate. All calculations were made using GraphPad Prism software.

[6] = sub-group B: possible secondary causes excluded, n=94
[7] = sub-group C: schizophrenia diagnoses only, secondary causes excluded, n=87
[8] = sub-group D: smokers only, secondary causes excluded, n=57

CN1CCN(C2=Nc3cc(Cl)ccc3Nc3ccccc32)CC1 [Clozapine, clozapine]
Serum IgA <0.6 g/L, percentage of patients [1, 6]: 2.1% | Serum IgA <0.7 g/L, percentage of patients [1, 6]: 6.4% | Serum IgA <0.8 g/L (below reference range 0.8-4.0 g/L), percentage of patients [1, 6]: 13.8% | Serum IgG <3 g/L, percentage of patients [1, 6]: 1.1% | Serum IgG <4 g/L, percentage of patients [1, 6]: 1.1% | Serum IgG <5 g/L, percentage of patients [1, 6]: 2.1% | Serum IgG <6 g/L (below reference range 6-16 g/L), percentage of patients [1, 6]: 8.4% | Serum IgM <0.2 g/L, percentage of patients [1, 6]: 5.3% | Serum IgM <0.3 g/L, percentage of patients [1, 6]: 12.8% | Serum IgM <0.4 g/L, percentage of patients [1, 6]: 26.6% | Serum IgM <0.5 g/L (below reference range 0.5-1.9 g/L), percentage of patients [1, 6]: 34.0% | Serum IgA <0.5 g/L, percentage of patients [1, 7]: 2.3% | Serum IgA <0.6 g/L, percentage of patients [1, 7]: 3.5% | Serum IgA <0.7 g/L, percentage of patients [1, 7]: 6.9% | Serum IgA <0.8 g/L (below reference range 0.8-4.0 g/L), percentage of patients [1, 7]: 14.9% | Serum IgG <3 g/L, percentage of patients [1, 7]: 1.2% | Serum IgG <4 g/L, percentage of patients [1, 7]: 1.2% | Serum IgG <5 g/L, percentage of patients [1, 7]: 2.3% | Serum IgG <6 g/L (below reference range 6-16 g/L), percentage of patients [1, 7]: 9.2% | Serum IgM <0.2 g/L, percentage of patients [1, 7]: 5.8% | Serum IgM <0.3 g/L, percentage of patients [1, 7]: 12.6% | Serum IgM <0.4 g/L, percentage of patients [1, 7]: 27.6% | Serum IgM <0.5 g/L (below reference range 0.5-1.9 g/L), percentage of patients [1, 7]: 35.6% | Serum IgA <0.5 g/L, percentage of patients [1, 8]: 3.5% | Serum IgA <0.6 g/L, percentage of patients [1, 8]: 3.5% | Serum IgA <0.7 g/L, percentage of patients [1, 8]: 3.5% | Serum IgA <0.8 g/L (below reference range 0.8-4.0 g/L), percentage of patients [1, 8]: 10.5% | Serum IgG <3 g/L, percentage of patients [1, 8]: 1.8% | Serum IgG <4 g/L, percentage of patients [1, 8]: 1.8% | Serum IgG <5 g/L, percentage of patients [1, 8]: 1.8% | Serum IgG <6 g/L (below reference range 6-16 g/L), percentage of patients [1, 8]: 8.8% | Serum IgM <0.2 g/L, percentage of patients [1, 8]: 1.78% | Serum IgM <0.3 g/L, percentage of patients [1, 8]: 12.3% | Serum IgM <0.4 g/L, percentage of patients [1, 8]: 26.3% | Serum IgM <0.5 g/L (below reference range 0.5-1.9 g/L), percentage of patients [1, 8]: 33.3% | IgG-Haemophilus B <1.0 mcg/ml, percentage of patients [2]: 51% and 51.2% and 51.1% and 49.4% and 50.9% | IgG-Pneumococcus <35 mg/L, percentage of patients [2]: 39.0% and 38.3% and 37.9% and 45.6% | IgG-Pneumococcus <50 mg/L, percentage of patients [2]: 52.1% and 50.6% and 54.4% | IgG-Tetanus <0.1 IU/ml, percentage of patients [2]: 10.6% and 11.5% and 12.3% | IgM-Pneumococcus, mean [2]: 58.5 U/L and 59.8 U/L and 60.4 U/L and 61.6 U/L | Pneumococcal IgM level [2]: 58.5 U/ml | Proportions of CD4+PD1+CXCR5+ T follicular helper cells in lymph node or spleen ([3]; 5 or 10 mg/kg from day 1 or day 15): did not significantly affect | Expression of PD-1 (MFI) in lymph node T follicular helper cells ([3]; all doses and time points): Reduced expression | Expression of CD25 on Tregs ([3]; dosed from day 1): significantly upregulate | Foxp3 expression on Tregs ([3]; dosed from day 1): not alter | CXCR5 expression (MFI) on T follicular helper cells ([3]; dosed from day 1, lymph node and spleen): significant reductions | Proportion of CD4+CD25+Foxp3+ T regulatory cells (Tregs) ([3]; higher dose tested, from day 1, lymph node and spleen): increase the proportion | Expression of CCR7 on T follicular helper cells ([3]; lymph node and spleen): reduced expression | Levels of circulating total IgG, IgA and IgM vs clozapine naive ([4]; FIG. 6A-C): Significantly reduced | IgG antibodies against pneumococcus vs clozapine naive ([4]; FIG. 7): trend to lower | Swelling of the first affected paw ([5]; 10 mg/kg from day 1): reduced | Onset of arthritis post-immunisation ([5]; 5 or 10 mg/kg IP daily from day 1 or day 15): significantly effective in delaying the onset of arthritis | Arthritis onset, treatment from day 1 ([5]; both doses (5, 10 mg/kg) from day 1): extremely effective in delaying arthritis onset | Overall clinical score ([5]; both doses, administered on day 1): reduced | Incidence of CIA ([5]; most apparent when dosed just after CII immunisation, FIG. 26): reduces the incidence | Total number of affected paws compared to vehicle control ([5]; significant with dosing at D1): reduced
